Experimental data from US20170253601A1, “Substituted Pyrrolidine Compounds” (EPIZYME, INC., priority 2014, published 2017).

molecular target: T1, SMYD2 (Homo sapiens, UniProt Q9NRG4); test: SMYD2 Biochemical Assay (3H-SAM, biotinylated peptide substrate, Flashplate); details: Table 2; average of n = 1 to n = 50; read-out: SMYD2 Biochem IC50
T1 construct: Full length SMYD2 (NP 064582.2) was cloned; His6 (N, cleaved yes); FLAG (N); made in house; host or cells: Sf9 insect cells
Description: S-adenosylmethionine (SAM), S-adenosylhomocysteine (SAH), bicine, Tween20, dimethylsulfoxide (DMSO), bovine skin gelatin (BSG), and Tris(2-carboxyethyl)phosphine hydrochloride (TCEP) were purchased from Sigma-Aldrich at the highest level of purity possible. ^3H-SAM was purchase from American Radiolabeled Chemicals with a specific activity of 80 Ci/mmol. 384-well streptavidin Flashplates were purchased from PerkinElmer.
Peptide was synthesized with a N-terminal linker-affinity tag motif and a C-terminal amide cap by 21st Century Biochemicals. The peptide was high-performance liquid chromatography (HPLC) purified to greater than 95% purity and confirmed by liquid chromatography mass spectrometry (LC-MS). The sequence was […](K-Biot)-amide. (SEQ ID No: 3)
Full length SMYD2 (NP 064582.2) was cloned into a pFastbac-Htb-lic vector with an N-terminal His6 tag and FLAG tag, preceded by a TEV protease cleavage site. The protein was expressed in Sf9 insect cells. Cells were resuspended in lysis buffer (25 mM HEPES-NaOH, pH 7.5, 200 mM NaCl, 5% glycerol, and 5 mM β-ME) and lysed by sonication. The protein was purified by Ni-NTA (Qiagen), followed by TEV cleavage to remove the His6 tag, subtractive Ni-NTA (Qiagen), and gel filtration chromatography using an […] (GE Healthcare). Purified protein was stored in 20 mM Tris-HCl, pH 8.0, 100 mM NaCl, and 1 mM TCEP.
The assays were all performed in a buffer consisting of 20 mM Bicine (pH=7.6), 1 mM TCEP, 0.005% Bovine Skin Gelatin, and 0.002% Tween20, prepared on the day of use. Compounds in 100% DMSO (1 ul) were spotted into a polypropylene 384-well V-bottom plates (Greiner) using a Platemate Plus outfitted with a 384-channel head (Thermo Scientific). DMSO (1 ul) was added to Columns 11, 12, 23, 24, rows A-H for the maximum signal control and 1 ul of SAH, a known product and inhibitor of SMYD2, was added to columns 11, 12, 23, 24, rows I-P for the minimum signal control. A cocktail (40 ul) containing the SMYD2 enzyme was added by Multidrop Combi (Thermo-Fisher). The compounds were allowed to incubate with SMYD2 for 30 min at room temperature, then a cocktail (10 ul) containing ^3H-SAM and peptide was added to initiate the reaction (final volume=51 ul). The final concentrations of the components were as follows: SMYD2 was 1.5 nM, ^3H-SAM was 10 nM, and peptide was 60 nM, SAH in the minimum signal control wells was 1000 uM, and the DMSO concentration was 2%. The assays were stopped by the addition of non-radioactive SAM (10 ul) to a final concentration of 600 uM, which dilutes the ^3H-SAM to a level where its incorporation into the peptide substrate is no longer detectable. 50 ul of the reaction in the 384-well polypropylene plate was then transferred to a 384-well Flashplate and the biotinylated peptides were allowed to bind to the streptavidin surface for at least 1 hour before being washed three times with 0.1% Tween20 in a Biotek ELx405 plate washer. The plates were then read in a PerkinElmer TopCount plate reader to measure the quantity of ^3H-labeled peptide bound to the Flashplate surface, measured as disintegrations per minute (dpm) or alternatively, referred to as counts per minute (cpm).
Where dpm=disintegrations per minute, cmpd=signal in assay well, and min and max are the respective minimum and maximum signal controls.
Where top and bottom are the normally allowed to float, but may be fixed at 100 or 0 respectively in a 3-parameter fit. The Hill Coefficient normally allowed to float but may also be fixed at 1 in a 3-parameter fit. I is the compound concentration.
SMYD2 biochemical assay data for representative Compounds of the Disclosure are presented in Tables 1-3 in the column titled “SMYD2 Biochem IC50 (μM).”

T1 sequence (Q9NRG4 whole entry): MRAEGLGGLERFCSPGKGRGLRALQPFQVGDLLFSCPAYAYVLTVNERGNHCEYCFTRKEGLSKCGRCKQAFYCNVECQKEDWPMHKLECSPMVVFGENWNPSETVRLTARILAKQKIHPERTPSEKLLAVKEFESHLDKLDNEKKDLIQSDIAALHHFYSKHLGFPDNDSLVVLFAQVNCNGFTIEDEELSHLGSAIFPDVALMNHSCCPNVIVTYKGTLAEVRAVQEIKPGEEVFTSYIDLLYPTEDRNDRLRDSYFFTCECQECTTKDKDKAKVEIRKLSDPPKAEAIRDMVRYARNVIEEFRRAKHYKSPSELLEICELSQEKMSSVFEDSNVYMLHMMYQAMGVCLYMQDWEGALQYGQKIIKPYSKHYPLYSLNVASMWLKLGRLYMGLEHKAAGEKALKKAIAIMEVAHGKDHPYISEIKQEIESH

Row | IC50 | Structure (SMILES)
1 | 2.4 µM | CC(C)N1C[C@H](C)[C@H](NC(=O)c2cc(C3CC3)on2)C1 (racemic) [compound 65, (±)-cis-5-cyclopropyl-N-(1-isopropyl-4-methylpyrrolidin-3-yl)isoxazole-3-carboxamide]
2 | > 50 µM | C[C@H]1CN(S(C)(=O)=O)C[C@H]1NC(=O)c1cc(C2CC2)on1 (racemic) [compound 66, (±)-cis-5-cyclopropyl-N-(4-methyl-1-(methyl-sulfonyl)pyrrolidin-3-yl)isoxazole-3-carboxamide]
3 | > 50 µM | C[C@@H]1CN(S(=O)(=O)C2CCNCC2)C[C@@H]1NC(=O)c1cc(C2CC2)on1 (racemic) [compound 67, (±)-cis 5-cyclopropyl-N-(4-methyl-1-(piperidin-4-ylsulfonyl)pyrrolidin-3-yl)isoxazole-3-carboxamide]
4 | > 50 µM | C[C@@H]1CN(C(=O)CN)C[C@@H]1NC(=O)c1cc(C2CC2)on1 (racemic) [compound 68, (±)-cis-5-cyclopropyl-N-(1-glycyl-4-methylpyrrolidin-3-yl)isoxazole-3-carboxamide]
5 | > 50 µM | C[C@@H]1CN(C(=O)CO)C[C@@H]1NC(=O)c1cc(C2CC2)on1 (racemic) [compound 69, (±)-cis-5-cyclopropyl-N-(1-(2-hydroxyacetyl)-4-methylpyrrolidin-3-yl)isoxazole-3-carboxamide]
6 | > 50 µM | C[C@H]1CN(C(=O)C2CCNCC2)C[C@H]1NC(=O)c1cc(C2CC2)on1 (racemic) [compound 70, (±)-cis-5-cyclopropyl-N-(4-methyl-1-(piperidine-4-carbonyl)pyrrolidin-3-yl)isoxazole-3-carboxamide]
7 | > 50 µM | C[C@@H]1CN(C(=O)CC2CCNCC2)C[C@@H]1NC(=O)c1cc(C2CC2)on1 (racemic) [compound 71, (±)-cis-5-cyclopropyl-N-(4-methyl-1-(2-(piperidin-4-yl)acetyl)pyrrolidin-3-yl)isoxazole-3-carboxamide]
8 | 18.4 µM | C[C@@H]1CN(C2CCCCC2)C[C@@H]1NC(=O)c1cc(C2CC2)on1 (racemic) [compound 72, (±)-cis-N-(1-cyclohexyl-4-methylpyrrolidin-3-yl)-5-cyclopropylisoxazole-3-carboxamide]
9 | 40.7 µM | C[C@@H]1CN(C2CCOCC2)C[C@@H]1NC(=O)c1cc(C2CC2)on1 (racemic) [compound 73, (±)-cis-5-cyclopropyl-N-(4-methyl-1-(tetrahydro-2H-pyran-4-yl)pyrrolidin-3-yl)isoxazole-3-carboxamide]
10 | 14 µM | C[C@@H]1CN(C2CCS(=O)(=O)CC2)C[C@@H]1NC(=O)c1cc(C2CC2)on1 (racemic) [compound 74, (±)-cis-5-cyclopropyl-N-(1-(1,1-dioxidotetrahydro-2H-thiopyran-4-yl)-4-methylpyrrolidin-3-yl)isoxazole-3-carboxamide]
11 | 5 µM | C[C@H]1CN(C2CCCC2)C[C@H]1NC(=O)c1cc(C2CC2)on1 (racemic) [compound 75, (±)-cis-N-(1-cyclopentyl-4-methylpyrrolidin-3-yl)-5-cyclopropylisoxazole-3-carboxamide]
12 | > 50 µM | C[C@H]1CN(CCS(C)(=O)=O)C[C@H]1NC(=O)c1cc(C2CC2)on1 (racemic) [compound 77, (±)-cis-cyclopropyl-N-((3S)-4-methyl-1-(2-(methyl-sulfonyl)ethyl)pyrrolidin-3-yl)isoxazole-3-carboxamide]
13 | 27.5 µM | C[C@H]1CN(CCN)C[C@H]1NC(=O)c1cc(C2CC2)on1 (racemic) [compound 78, (±)-cis-N-(1-(2-aminoethyl)-4-methylpyrrolidin-3-yl)-5-cyclopropylisoxazole-3-carboxamide]
14 | 30.5 µM | C[C@@H]1CN(C2CCN(C(=O)OC(C)(C)C)CC2)C[C@@H]1NC(=O)c1cc(C2CC2)on1 (racemic) [compound 80, (±)-cis-tert-butyl 4-(3-(5-cyclopropylisoxazole-3-carboxamido)-4-methylpyrrolidin-1-yl)piperidine-1-carboxylate]
15 | > 50 µM | C[C@@H]1CN(C2CCNCC2)C[C@@H]1NC(=O)c1cc(C2CC2)on1 (racemic) [compound 81, (±)-cis-5-cyclopropyl-N-(4-methyl-1-(piperidin-4-yl)pyrrolidin-3-yl)isoxazole-3-carboxamide]
16 | > 50 µM | C[C@@H]1CN(C2CCN(C)CC2)C[C@@H]1NC(=O)c1cc(C2CC2)on1 (racemic) [compound 82, (±)-cis-5-cyclopropyl-N-(4-methyl-1-(1-methylpiperidin-4-yl)pyrrolidin-3-yl)isoxazole-3-carboxamide]
17 | > 50 µM | CC(=O)N1CCC(N2C[C@@H](C)[C@@H](NC(=O)c3cc(C4CC4)on3)C2)CC1 (racemic) [compound 83, (±)-cis-N-(1-(1-acetylpiperidin-4-yl)-4-methylpyrrolidin-3-yl)-5-cyclopropylisoxazole-3-carboxamide]
18 | > 50 µM | C[C@@H]1CN(Cc2cccnc2)C[C@H]1NC(=O)c1cc(C2CC2)on1 (racemic) [compound 84, (±)-trans-5-cyclopropyl-N-(4-methyl-1-(pyridin-3-ylmethyl)pyrrolidin-3-yl)isoxazole-3-carboxamide]
19 | > 50 µM | C[C@@H]1CN(Cc2ccncc2)C[C@H]1NC(=O)c1cc(C2CC2)on1 (racemic) [compound 85, (±)-trans-5-cyclopropyl-N-(4-methyl-1-(pyridin-4-ylmethyl)pyrrolidin-3-yl)isoxazole-3-carboxamide]
20 | > 50 µM | C[C@@H]1CN(Cc2ccccn2)C[C@H]1NC(=O)c1cc(C2CC2)on1 (racemic) [compound 87, (±)-trans-5-cyclopropyl-N-(4-methyl-1-(pyridin-2-ylmethyl)pyrrolidin-3-yl)isoxazole-3-carboxamide]
21 | 34.2 µM | CCN1C[C@@H](C)[C@H](NC(=O)c2cc(C3CC3)on2)C1 (racemic) [compound 88, (±)-trans-5-cyclopropyl-N-(1-ethyl-4-methylpyrrolidin-3-yl)isoxazole-3-carboxamide]
22 | > 50 µM | CC(=O)N1C[C@@H](C)[C@H](NC(=O)c2cc(C3CC3)on2)C1 (racemic) [compound 89, (±)-trans-N-(1-acetyl-4-methylpyrrolidin-3-yl)-5-cyclopropylisoxazole-3-carboxamide]
23 | > 50 µM | C[C@@H]1CN(S(C)(=O)=O)C[C@H]1NC(=O)c1cc(C2CC2)on1 (racemic) [compound 90, (±)-trans-5-cyclopropyl-N-(4-methyl-1-(methylsulfonyl)pyrrolidin-3-yl)isoxazole-3-carboxamide]
24 | > 50 µM | C[C@H]1CN(S(=O)(=O)C2CCNCC2)C[C@@H]1NC(=O)c1cc(C2CC2)on1 (racemic) [compound 91, (±)-trans-5-cyclopropyl-N-(4-methyl-1-(piperidin-4-ylsulfonyl)pyrrolidin-3-yl)isoxazole-3-carboxamide]
25 | > 50 µM | C[C@H]1CN(C(=O)CN)C[C@@H]1NC(=O)c1cc(C2CC2)on1 (racemic) [compound 92, (±)-trans-5-cyclopropyl-N-(1-glycyl-4-methylpyrrolidin-3-yl)isoxazole-3-carboxamide]
26 | > 50 µM | C[C@H]1CN(C(=O)CO)C[C@@H]1NC(=O)c1cc(C2CC2)on1 (racemic) [compound 93, (±)-trans-5-cyclopropyl-N-(1-(2-hydroxyacetyl)-4-methylpyrrolidin-3-yl)isoxazole-3-carboxamide]
27 | > 50 µM | C[C@@H]1CN(C(=O)C2CCNCC2)C[C@H]1NC(=O)c1cc(C2CC2)on1 (racemic) [compound 94, (±)-trans-5-cyclopropyl-N-(4-methyl-1-(piperidine-4-carbonyl)pyrrolidin-3-yl)isoxazole-3-carboxamide]
